From patent publication US6831199B1, “Pyrimidine compounds and derivatives thereof” (G. D. Searle & Co., priority 1995, dated 2004) come the findings set out here.

Assay [1] concerns the target T1, Human vitronectin receptor (αvβ3) (Homo sapiens, UniProt P05106+P06756).
T1 construct: Human vitronectin receptor (αvβ3) was purified from human placenta; from tissue; host or cells: human placenta
The assay is described as follows: Vitronectin adhesion assay (solid phase receptor assay, competition with biotinylated vitronectin). It is filed as binding. The following applies: read-out: AvB3 IC50. On the procedure:
VITRONECTIN ADHESION ASSAY
Assay buffer, OPD substrate tablets, and RIA grade BSA were obtained from Sigma (St. Louis, Mo.). Anti-biotin antibody was obtained from Calbiochem (La Jolla, Calif.). Linbro microtiter plates were obtained from Flow Labs (McLean, Va.). ADP reagent was obtained from Sigma (St. Louis, Mo.).
(§1) Solid Phase Receptor Assays
(§2) The purified human vitronectin receptor (αvβ3) was diluted from stock solutions to 1.0 μg/mL in Tris-buffered saline containing 1.0 mM Ca^++, Mg^++, and Mn^++, pH 7.4 (TBS^+++). The diluted receptor was immediately transferred to Linbro microtiter plates at 100 μL/well (100 ng receptor/well). The plates were sealed and incubated overnight at 4° C. to allow the receptor to bind to the wells. All remaining steps were at room temperature. The assay plates were emptied and 200 μL of 1% RIA grade BSA in TBS^+++(TBS^+++/BSA) were added to block exposed plastic surfaces. Following a 2 hour incubation, the assay plates were washed with TBS^+++ using a 96 well plate washer. Logarithmic serial dilution of the test compound and controls were made starting at a stock concentration of 2 mM and using 2 nM biotinylated vitronectin in TBS^+++/BSA as the diluent. This premixing of labeled ligand with test (or control) ligand, and subsequent transfer of 50 μL aliquots to the assay plate was carried out with a CETUS Propette robot; the final concentration of the labeled ligand was 1 nM and the highest concentration of test compound was 1.0×10^−4 M. The competition occurred for two hours after which all wells were washed with a plate washer as before. Affinity purified horseradish peroxidase labeled goat anti-biotin antibody was diluted 1:3000 in TBS^+++/BSA and 125 μL were added to each well. After 30 minutes, the plates were washed and incubated with OPD/H2O2 substrate in 100 mM/L Citrate buffer, pH 5.0. The plate was read with a microtiter plate reader at a wavelength of 450 nm and when the maximum-binding control wells reached an absorbance of about 1.0, the final A450 were recorded for analysis. The data were analyzed using a macro written for use with the EXCEL™ spreadsheet program. The mean, standard deviation, and % CV were determined for duplicate concentrations. The mean A450 values were normalized to the mean of four maximum-binding controls (no competitor added)(B-MAX). The normalized values were subjected to a four parameter curve fit algorithm [Rodbard et al., Int.

Assay [2] deals with T2, Human fibrinogen receptor (αIIbβ3) (Homo sapiens, UniProt P05106+P08514).
T2 construct: Human fibrinogen receptor (αIIbβ3) was purified from outdated platelets; from tissue; host or cells: outdated human platelets
The assay is described as follows: Purified IIb/IIIa receptor assay (solid phase receptor assay, competition with biotinylated vitronectin). In kind it is binding. The following applies: read-out: IIb/IIIa IC50. The method, then:
PURIFIED IIb/IIIa RECEPTOR ASSAY
Human fibrinogen receptor (αIIbβ3) was purified from outdated platelets. […] Biotinylated human vitronectin was prepared by coupling NHS-biotin from Pierce Chemical Company (Rockford, Ill.) to purified vitronectin as previously described. […] Anti-biotin antibody was obtained from Calbiochem (La Jolla, Calif.). Linbro microtiter plates were obtained from Flow Labs (McLean, Va.). ADP reagent was obtained from Sigma (St. Louis, Mo.).
as §1
as §2, with “human fibrinogen” for “human vitronectin”, “receptor (αIIbβ3)” for “receptor (αvβ3)”, “in TBS^+++ (TBS^+++/BSA)” for “in TBS^+++(TBS^+++/BSA)”, “with […]” for “with OPD/H2O2”, “mM/L citrate” for “mM/L Citrate”, “fit algorithm, [Robard” for “fit algorithm [Rodbard”

Counter-ions that a name gives are not always drawn.

As for `CCOC(=O)CC(NC(=O)CNC(=O)c1cccc(NC(=O)NCc2ccccc2)c1)c1ccc2c(c1)OCO2` (stereo not drawn) [Example 121, ethyl β-[[2-[[[3-[[[(phenylmethyl)amino]carbonyl]amino]phenyl]carbonyl]amino]acetyl]amino]-1,3-benzodioxole-5-propanoate], the IC50 in assay [1] is 2840 nM; in assay [2] it was above 100000 nM.

On to `N=C(N)Nc1cccc(C(=O)NCC(=O)NC(CC(=O)O)C(F)(F)F)c1` (centres unmarked) [Example 261, 3-[[2-[[[3-[(aminoiminomethyl)amino]phenyl]carbonyl]aminoacetyl]amino]-4,4,4-trifluorobutanoic acid, trifluoroacetate salt], for which the IC50 stood at 6.47 nM in assay [1] and 4710 nM in assay [2].

For the compound `NC(=S)Nc1cccc(C(=O)NCC(=O)NC(CC(=O)O)c2cc(Cl)cc(Cl)c2)c1` (racemic) [Example 206, (±)β-[[2-[[[3-[(aminothioxomethyl)amino]phenyl]carbonyl]amino]acetyl]amino]-3,5-dichlorobenzenepropanoic acid], the IC50 in assay [1] worked out at 78.5 nM; in assay [2] it was 22000 nM.

As for `N=C(N)Nc1cc(C(=O)NCC(=O)NC(CC(=O)O)c2cc(Cl)cc(Cl)c2)ccc1Cl` (stereo not drawn) [Example 168, β-[[2-[[[3-[(aminoiminomethyl)amino]-4-chlorophenyl]carbonyl]amino]acetyl]amino]-3,5-dichlorobenzenepropanoic acid, trifluoroacetate salt], the values for the IC50 in assay [1] and in assay [2] were 2.29 nM and 269 nM, respectively.

Take `C/N=C(\NC)Nc1cccc(C(=O)NCC(=O)NC(CC(=O)O)c2cc(Cl)cc(Cl)c2)c1` (racemic) [Example 294, (±)3,5-dichloro-β-[[2-[[[3-[[(methylamino)(methylimino)methyl]amino]phenyl]carbonyl]amino]acetyl]amino]benzenepropanoic acid, trifluoroacetate salt]: the IC50 in assay [1] is 173 nM; in assay [2], 1990 nM.

For the compound `COc1ccc(Br)cc1C(CC(=O)O)NC(=O)CNC(=O)c1cccc(NC(=N)N)c1` (stereo not drawn) [Example 257, β-[[2-[[[3-[(aminoiminomethyl)amino]phenyl]carbonyl]amino]acetyl]amino]-5-bromo-2-methoxybenzenepropanoic acid, trifluoroacetate salt], the IC50 amounted to 49.2 nM in assay [1] and 4660 nM in assay [2].

For `O=C(O)CC(NC(=O)CNC(=O)c1cccc(NC2=NCCN2)c1)c1cc(C(F)(F)F)cc(C(F)(F)F)c1` (racemic) [Example 179, (±)β-[[2-[[[3-[(4,5-dihydro-1H-imidazol-2-yl)amino]phenyl]carbonyl]amino]acetyl]-amino]-3,5-bis(trifluoromethyl)benzenepropanoic acid, trifluoroacetate salt], the values for the IC50 in assay [1] and in assay [2] were 2.72 nM and 927 nM, respectively.

For `CC(NC(=O)c1cccc(NC(=N)N)c1)C(=O)NC(CC(=O)O)c1cccnc1` (stereo not drawn) [Example 82, β-[[2-[[[3-[(aminoiminomethyl)amino]phenyl]carbonyl]amino]-1-oxopropyl]amino]pyridine-3-propanoic acid, bis(trifluoroacetate)salt], the IC50 in assay [1] stood at 334 nM; in assay [2] it was 353 nM.

Take `CCOC(=O)NC(=N)Nc1cccc(C(=O)NCC(=O)NC(CC(=O)O)c2cc(Cl)cc(Cl)c2)c1` (stereo not drawn) [Example 241, 3,5-dichloro-β-[[2-[[[3-[[[(ethoxycarbonyl)amino]iminomethyl]amino]phenyl]carbonyl]amino]acetyl]amino]benzenepropanoic acid, trifluoroacetate salt, monohydrate]: the IC50 in assay [1] stood at 557 nM; in assay [2] it was 17200 nM.

`N=C(N)Nc1cc(C(=O)O)cc(C(=O)NCC(=O)NC(CC(=O)O)c2cc(Cl)cc(Cl)c2)c1` (stereo not drawn) [Example 290, β-[[2-[[[3-[(aminoiminomethyl)amino]-5-carboxyphenyl]carbonyl]amino]acetyl]amino]-3,5-dichlorobenzenepropanoic acid, trifluoroacetate salt]: the IC50 in assay [1] came to 1.62 nM; in assay [2] it was 1020 nM.
